Test results taken from paper PMC6499371 (Chemical communications (Cambridge, England), 2019).

Molecular target: T1, porcine trehalase (Sus scrofa, UniProt I3LIR5)
T1 sequence (I3LIR5 24-556): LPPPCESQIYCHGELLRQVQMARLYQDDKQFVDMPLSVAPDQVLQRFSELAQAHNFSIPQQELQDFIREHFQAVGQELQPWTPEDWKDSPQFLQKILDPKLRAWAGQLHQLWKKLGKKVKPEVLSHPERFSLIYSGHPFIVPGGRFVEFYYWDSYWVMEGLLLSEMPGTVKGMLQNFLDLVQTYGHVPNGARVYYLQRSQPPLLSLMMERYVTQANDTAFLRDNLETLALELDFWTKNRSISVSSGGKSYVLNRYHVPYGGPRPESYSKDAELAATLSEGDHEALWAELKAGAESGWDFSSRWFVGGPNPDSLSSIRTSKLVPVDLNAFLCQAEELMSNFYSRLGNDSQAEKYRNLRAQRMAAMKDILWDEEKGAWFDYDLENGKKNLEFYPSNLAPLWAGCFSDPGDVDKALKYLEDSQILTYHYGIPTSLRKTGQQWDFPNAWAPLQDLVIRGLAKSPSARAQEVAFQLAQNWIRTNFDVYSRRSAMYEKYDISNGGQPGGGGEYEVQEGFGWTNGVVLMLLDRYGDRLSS
Assay: UV spectrophotometric coupled assay of trehalose hydrolysis
Format: biochemical

IC50: 1130 µM
Compound: OC[C@H]1O[C@H](O[C@H]2O[C@H](CO)[C@@H](O)[C@H](O)[C@H]2O)[C@@H](O)[C@@H](O)[C@@H]1O [compound 2, mannotrehalose]
